Patent publication US4531001A, “2-β-D-ribofuranosylselenazole-4-carboxamide compounds” (priority 1983, dated 1985)
Where “and” joins values, the source holds several entries; their conditions need not be identical. Identical values can stand only once.

Columns and labels:
Lewis lung carcinoma = test: Antitumor activity against Lewis lung carcinoma, Example 14 (Table IV); assay type: in vivo, B6D 2F 1 male mice; set-up: Treated Group Survival Time: unit not given here; conditions: for Treated Group Survival Time: mean, control 19.0
Protocol: As illustrative examples of the antitumor use of COMPOUNDS 1 and 2, Examples 12 through 14, below, are given. […] The tests utilized in these illustrative examples were conducted by the Developmental Therapeutics Program, Division of Cancer Treatment, National Cancer Institute. The tests were supervised by this agency utilizing their standard protocols and procedures. All tests conformed to these protocols and all tests were evaluated under the criteria defined by these protocols. The following representative examples illustrate confirmed activity of the illustrative compounds of the invention against screening tumor systems of the National Cancer Institute.
For purposes of the following examples, the abbreviation IP stands for intraperitoneal and IV stands for intravenous. The mean and median survival times are calculated in instruction 14 (revised 6/78) of the Screening Data Summary, Developmental Therapeutics Program, Division of Cancer Treatment, National Cancer Institute. The contents of this Screening Data Summary including appropriate revisions are herein incorporated by reference.
In the illustrated examples below, the vehicle used as carrier for the drug was injected (minus any drug therein) into the control animals at the same level of use of the vehicle in the drug treated animals in order to eliminate any vehicle effect of the tests.
In both the control group and the drug treated group in Example 12, the animals were inoculated on day zero with a homogenate of 10^6 seed cells of Lewis lung carcinoma. For Example 12, drug treatment was started on day one and COMPOUND 1 given once daily for nine days. Day five was utilized as the cut-off date for deaths attributable to toxicity of the drug. […] Efficacy of treatment was determined by comparing median survival time of the control animals and is expressed as percentage increase of treated animals/control animals (T/C).
COMPOUND 2, 2-(5-phosphono-β-D-ribofuranosyl)selenazole-4-carboxamide was screened for Lewis lung carcinoma activity in a manner similar to that described in Example 12. In this example, B6D 2F 1 male mice were challenged with Lewis lung carcinoma. The mean survival time of the test animals was compared to that of appropriate control animals. […] At 13 mg/kg the treated, surviving mice have a T/C of 315 percent and 4 out of 10 cures were achieved.

P388 = test: Growth inhibition in suspension cell culture, P388; assay type: cell-based; conditions: Mus musculus, 72 hours, cell count 50 percent of untreated control, read-out: ID50 (the source's name)
Protocol: (§1) In further tests, growth-inhibitory effects of COMPOUND 1 and COMPOUND 2 were measured against 3 mouse tumor lines in suspension cell culture. Cell cultures were initiated at a density of 50,000 cells/ml in medium RPMI 1630 supplemented with 10 percent fetal calf serum. Composition of this culture medium and details of the culture procedure followed the published method (G. E. Moore, A. A. Sandberg and K. Ulrich, Suspension Cell Culture and in vivo and in-vitro chromosome constitution of mouse leukemia L1210, Journal of the National Cancer Institute 36, 405-415, 1966). Cultures were maintained at 37 degrees in stationary suspension culture under a 95 percent air+5 percent CO2 atmosphere. Test compounds were added to treated cultures at the time of initiation, and were present continually. After 72 hours, 40-fold dilutions of drug-treated and untreated control cultures were prepared in 0.9 percent NACl solution, and cells were counted on an electronic particle counter. The growth-inhibitory effects are expressed as ID50 values, namely, test compound inhibitory dosages or concentrations required to decrease cell count in treated cultures to 50 percent of the cell count of untreated control cultures.

3 mouse tumor lines = test: Growth inhibition in suspension cell culture, representative tumor lines; assay type: cell-based
Protocol: as §1

L-1210 = test: Growth inhibition in suspension cell culture, L-1210; assay type: cell-based; conditions: Mus musculus, L1210, 72 hours, cell count 50 percent of untreated control, read-out: ID50 (the source's name)
Protocol: as §1

B16 Melanoma = test: Growth inhibition in suspension cell culture, B16 Melanoma; assay type: cell-based; conditions: Mus musculus, 72 hours, cell count 50 percent of untreated control, read-out: ID50 (the source's name)
Protocol: as §1

NC(=O)c1c[se]c([C@@H]2O[C@H](COP(=O)(O)O)[C@@H](O)[C@H]2O)n1 [COMPOUND 2, 2-β-D-Ribofuranosylselenazole-4-Carboxamide 5'-phosphate]
Cures (Lewis lung carcinoma; 3 mg/kg): 0/10 | Percent Treated Animals/Control Animals (T/C) (Lewis lung carcinoma; 3 mg/kg): 109% | Treated Group Survival Time (Lewis lung carcinoma; 3 mg/kg): 20.8 | Cures (Lewis lung carcinoma; 6 mg/kg): 0/10 | Percent Treated Animals/Control Animals (T/C) (Lewis lung carcinoma; 6 mg/kg): 115% | Treated Group Survival Time (Lewis lung carcinoma; 6 mg/kg): 22.0 | Cures (Lewis lung carcinoma; 9 mg/kg): 1/10 | Treated Group Survival Time (Lewis lung carcinoma; 9 mg/kg): 12.5 | Cures (Lewis lung carcinoma; 13 mg/kg): 4 out of 10 and 4/10 | Percent Treated Animals/Control Animals (T/C) (Lewis lung carcinoma; 13 mg/kg): 315% | Treated Group Survival Time (Lewis lung carcinoma; 13 mg/kg): 60.0 | Cures (Lewis lung carcinoma; 20 mg/kg): 2/10 | Treated Group Survival Time (Lewis lung carcinoma; 20 mg/kg): 12.0 | Cures (Lewis lung carcinoma; 33 mg/kg): 3/10 | Treated Group Survival Time (Lewis lung carcinoma; 33 mg/kg): 12.5 | Cures (Lewis lung carcinoma; 50 mg/kg): 3/10 | Treated Group Survival Time (Lewis lung carcinoma; 50 mg/kg): 12.5 | Cures (Lewis lung carcinoma; 75 mg/kg): 1/10 | Treated Group Survival Time (Lewis lung carcinoma; 75 mg/kg): 15.5 | antitumor activity in words (Lewis lung carcinoma; mean survival time versus control): effective antitumor agent | IC50 (P388): 0.066 µM | growth inhibition compared with COMPOUND 1, in words (3 mouse tumor lines; cell culture): appears to be superior to COMPOUND 1 | growth inhibition in words (3 mouse tumor lines; representative tumor lines in cell culture): inhibit growth in cell culture for representative tumor lines at extremely low dosage | IC50 (L-1210): 0.058 µM | IC50 (B16 Melanoma): 7.5 µM
